Results taken from US8708475B2, “Ultraviolet crosslinking inkjet ink, ink cartridge containing same, and image forming method and apparatus using same” (Ricoh Company, Ltd., priority 2010, dated 2014).
“Also recorded” adds a separate entry of the source. Like-named read-outs stand apart in the source and are kept apart here.

Legend:
mice [1] = settings: mouse, in vivo
[2] = in vivo; cited from earlier work
mice [3] = assay: LLNA method skin sensitization test (OECD Test Guideline 429), stimulation index from BrdU content of auricular lymph nodes; settings: mouse, in vivo
[4] = described in the MSDS; cited from earlier work
[5] = maximization method, Contact Dermatitis 8 223-235 (1982); cited from earlier work

C=C(C)C(=O)OCC(C)(C)COC(=O)C(=C)C [Neopentyl glycol dimethacrylate]
SI value, bound stated for listed methacrylates (mice [1]; female, 3 days): less than 3

Polyethylene glycol (400) dimethacrylate
SI value, bound stated for listed methacrylates (mice [1]): less than 3

C=C(C)C(=O)OCC(CC)(COC(=O)C(=C)C)COC(=O)C(=C)C [Trimethylolpropane trimethacrylate]
skin irritation potential (in words) [2]: low skin irritation potential | skin sensitization potential (in words) (mice [3]): low skin sensitization potential

CSc1ccc(C(=O)C(C)(C)N2CCOCC2)cc1 [2-Methyl-1-[4-(methylthio)phenyl]-2-morphorinopropane-1-one]
skin sensitization potential [4]: no skin sensitization potential; also recorded: pane-1-one (nega-

C=CC(=O)OCC(CC)(COC(=O)C=C)COC(=O)C=C [Trimethylolpropane triacrylate]
skin irritation potential (in words) [2]: high skin irritation potential

Polyethylene glycol (600) dimethacrylate
SI value, bound stated for listed methacrylates (mice [1]): less than 3

C=C(C)C(=O)OCCCCC [n-Pentyl methacrylate]
skin sensitization potential [5]: negative skin sensitization potential | SI value, bound stated for listed methacrylates (mice [1]): less than 3

C=C(C)C(=O)OC(C)(C)C [t-Butyl methacrylate]
skin sensitization potential [5]: negative skin sensitization potential | SI value, bound stated for listed methacrylates (mice [1]): less than 3

C=C(C)C(=O)OCCCCCC [n-Hexyl methacrylate]
skin sensitization potential [5]: negative skin sensitization potential | SI value, bound stated for listed methacrylates (mice [1]): less than 3
